Measured values as given in paper PMC7901646, “Pyrrolo[2′,3′:3,4]cyclohepta[1,2-d][1,2]oxazoles, a New Class of Antimitotic Agents Active against Multiple Malignant Cell Types” (Journal of Medicinal Chemistry, 2020).
Read-outs that look alike come from different tables or passages of the source.

Assays:
[1] = system: NCI-60 panel of human cancer cell lines; experiment: NCI in vitro human tumor cell line screening, full panel; format: cell-based; settings: for MG_MID (mean graph midpoint): arithmetic mean for all tested cancer cell lines
Text: on the full NCI-60 panel comprising cancer cell lines derived from nine human cancer cell types (leukemia, non-small-cell lung, colon, central nervous system, melanoma, ovarian, renal, prostate, and breast).[50]

MALME-3M = experiment: NCI-60 screen; format: cell-based; settings: Homo sapiens, Melanoma
Description: (§1) All the synthesized compounds 51–76 were tested at a 10^–5 M concentration for their antitumor activity on the full NCI-60 panel comprising cancer cell lines derived from nine human cancer cell types (leukemia, non-small-cell lung, colon, central nervous system, melanoma, ovarian, renal, prostate, and breast).[50]

BT-549 = experiment: NCI-60 screen; format: cell-based; settings: Homo sapiens, Breast Cancer
Description: as §1

HS 578T = experiment: NCI-60 screen; format: cell-based; settings: Homo sapiens, Breast Cancer
Description: as §1

HCC-2998 = experiment: NCI-60 screen; format: cell-based; settings: Homo sapiens, Colon Cancer
Description: as §1

U251 = experiment: NCI-60 screen; format: cell-based; settings: Homo sapiens, U-251; CNS Cancer
Description: as §1

786–0 = experiment: NCI-60 screen; format: cell-based; settings: Homo sapiens, Renal Cancer
Description: as §1

NCI-H23 = experiment: NCI-60 screen; format: cell-based; settings: Homo sapiens, Non-Small-Cell Lung Cancer
Description: as §1

SNB-75 = experiment: NCI-60 screen; format: cell-based; settings: Homo sapiens, CNS Cancer
Description: as §1

SF-539 = experiment: NCI-60 screen; format: cell-based; settings: Homo sapiens, CNS Cancer
Description: as §1

SN12C = experiment: NCI-60 screen; format: cell-based; settings: Homo sapiens, Renal Cancer
Description: as §1

SK-MEL-28 = experiment: NCI-60 screen; format: cell-based; settings: Homo sapiens, Melanoma
Description: as §1

HOP-92 = experiment: NCI-60 screen; format: cell-based; settings: Homo sapiens, Non-Small-Cell Lung Cancer
Description: as §1

UO-31 = experiment: NCI-60 screen; format: cell-based; settings: Homo sapiens, Renal Cancer
Description: as §1

HOP-62 = experiment: NCI-60 screen; format: cell-based; settings: Homo sapiens, Non-Small-Cell Lung Cancer
Description: as §1

OVCAR-4 = experiment: NCI-60 screen; format: cell-based; settings: Homo sapiens, Ovarian Cancer
Description: as §1

MDA-MB-468 = experiment: NCI-60 screen; format: cell-based; settings: Homo sapiens, Breast Cancer
Description: as §1

NCI-H322M = experiment: NCI-60 screen; format: cell-based; settings: Homo sapiens, Non-Small-Cell Lung Cancer
Description: as §1

OVCAR-5 = experiment: NCI-60 screen; format: cell-based; settings: Homo sapiens, Ovarian Cancer
Description: as §1

RXF 393 = experiment: NCI-60 screen; format: cell-based; settings: Homo sapiens, Renal Cancer
Description: as §1

T-47D = experiment: NCI-60 screen; format: cell-based; settings: Homo sapiens, T47D; Breast Cancer
Description: as §1

OVCAR-8 = experiment: NCI-60 screen; format: cell-based; settings: Homo sapiens, Ovarian Cancer
Description: as §1

VL51 (MZL) = experiment: MTT cell proliferation, lymphoma; format: cell-based; settings: Homo sapiens, 72 h; for activity at 1 µM: of untreated cells, read-out: Proliferating cells (%); for IC50: MTT
In short: (§2)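 Lymphoma lines in RPMI-1640 with 10% FBS seeded at 1 × 10^5 cells/mL and treated with 1 μM, or in triplicate with serial dilutions over 40–10 000 nM, for 72 h at 37 °C, 5% CO2. Viability by MTT (4 h), SDS lysis, absorbance at 570 nm with medium-only blanks.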

HBL1 (ABC DLBCL) = experiment: MTT cell proliferation, lymphoma; format: cell-based; settings: Homo sapiens, 72 h; for activity at 1 µM: of untreated cells, read-out: Proliferating cells (%); for IC50: MTT
In short: as §2

SU-DHL-10 (GCB DLBCL) = experiment: MTT cell proliferation, lymphoma; format: cell-based; settings: Homo sapiens, SU-DHL10, 72 h; for activity at 1 µM: of untreated cells, read-out: Proliferating cells (%); for IC50: MTT
In short: as §2

MINO (MCL) = experiment: MTT cell proliferation, lymphoma; format: cell-based; settings: Homo sapiens, 72 h; for activity at 1 µM: of untreated cells, read-out: Proliferating cells (%); for IC50: MTT
In short: as §2

bovine brain tubulin = bovine brain tubulin (Bos taurus, UniProt P81947+Q6B856); experiment: Inhibition of tubulin assembly (turbidimetry); format: biochemical; settings: 9 μM (0.9 mg/mL) tubulin, 20 min at 30 °C; read-out: inhibition of tubulin assembly IC50 ± SD
bovine brain tubulin, sequence (Q6B856 whole entry): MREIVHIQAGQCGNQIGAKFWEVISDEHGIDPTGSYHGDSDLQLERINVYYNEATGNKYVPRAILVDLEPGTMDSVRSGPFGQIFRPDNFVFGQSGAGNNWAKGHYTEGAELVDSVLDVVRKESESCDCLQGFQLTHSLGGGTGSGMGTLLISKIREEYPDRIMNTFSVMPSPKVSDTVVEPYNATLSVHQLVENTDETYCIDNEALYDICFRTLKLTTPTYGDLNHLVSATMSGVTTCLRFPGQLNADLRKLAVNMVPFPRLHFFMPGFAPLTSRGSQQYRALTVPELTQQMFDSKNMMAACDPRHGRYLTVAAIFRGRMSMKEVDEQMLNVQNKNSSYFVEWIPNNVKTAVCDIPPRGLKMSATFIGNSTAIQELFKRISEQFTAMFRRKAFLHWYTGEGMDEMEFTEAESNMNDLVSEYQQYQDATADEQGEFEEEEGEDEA
bovine brain tubulin, sequence (P81947 whole entry): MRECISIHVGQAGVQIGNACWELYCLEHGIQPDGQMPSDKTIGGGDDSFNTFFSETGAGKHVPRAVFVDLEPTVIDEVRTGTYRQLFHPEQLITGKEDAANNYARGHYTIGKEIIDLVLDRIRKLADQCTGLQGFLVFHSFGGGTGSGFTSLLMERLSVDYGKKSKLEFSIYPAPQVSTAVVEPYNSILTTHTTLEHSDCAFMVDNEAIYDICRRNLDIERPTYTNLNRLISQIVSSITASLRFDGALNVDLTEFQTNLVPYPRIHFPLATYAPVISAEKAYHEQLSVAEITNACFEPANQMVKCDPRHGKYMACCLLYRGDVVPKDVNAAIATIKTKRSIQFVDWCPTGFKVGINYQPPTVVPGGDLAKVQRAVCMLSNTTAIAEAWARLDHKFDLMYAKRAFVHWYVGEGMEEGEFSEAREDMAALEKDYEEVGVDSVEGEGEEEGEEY

SK-MEL-2 = experiment: NCI-60 screen; format: cell-based; settings: Homo sapiens, Melanoma
Description: as §1

[2] = Homo sapiens, full NCI panel, five concentrations 10^–4–10^–8 M, read-out: GI50 (concentration that inhibits 50% net cell growth), range over panel
[3] = full NCI panel, five concentrations 10^–4–10^–8 M, read-out: GI50 (concentration that inhibits 50% net cell growth), range over panel

SMILES | MG_MID (mean graph midpoint) ([1]; full NCI panel) [µM] | GI50 (MALME-3M) [µM] | GI50 (BT-549) [µM] | GI50 (HS 578T) [µM] | GI50 (HCC-2998) [µM] | GI50 (786–0) [µM] | GI50 (SNB-75) [µM] | GI50 (SF-539) [µM] | GI50 (SN12C) [µM] | GI50 (SK-MEL-28) [µM] | GI50 (UO-31) [µM] | GI50 (OVCAR-5) [µM] | activity at 1 µM (VL51 (MZL)) [%] | IC50 (VL51 (MZL)) [µM] | activity at 1 µM (HBL1 (ABC DLBCL)) [%] | IC50 (HBL1 (ABC DLBCL)) [µM] | activity at 1 µM (SU-DHL-10 (GCB DLBCL)) [%] | IC50 (SU-DHL-10 (GCB DLBCL)) [µM] | activity at 1 µM (MINO (MCL)) [%] | IC50 (MINO (MCL)) [µM] | further results
CCOC(=O)c1cc2c(n1Cc1ccccc1OC)-c1oncc1CCC2 [Compound 62, Ethyl 9-(2-Methoxybenzyl)-4,5,6,9-tetrahydropyrrolo[2′,3′:3,4]cyclohepta[1,2-d][1,2]oxazole-8-carboxylate] | 4.47 | 3.08 | 7.73 | 3.38 | > 100 | > 100 | 1.97 | 2.48 | > 100 | > 100 | 6.53 | > 100 | 71.3 | 3.2 | 128 | > 5 | 51.1 | 3.6 | 104 | 4 | GI50 [1, 2]: 0.3 to 46.2 µM; GI50 (U251): 3.78 µM; GI50 (NCI-H23): 8.52 µM; GI50 (HOP-92): 0.3 µM; GI50 (HOP-62): 1.89 µM; GI50 (OVCAR-4): 9.35 µM; GI50 (MDA-MB-468): 2.95 µM; GI50 (NCI-H322M): 5.23 µM; GI50 (RXF 393): 2.08 µM; GI50 (T-47D): 2.46 µM; GI50 (OVCAR-8): 3.85 µM
CCOC(=O)c1cc2c(n1Cc1cccc(OC)c1)-c1oncc1CCC2 [Compound 63, Ethyl 9-(3-Methoxybenzyl)-4,5,6,9-tetrahydropyrrolo[2′,3′:3,4]cyclohepta[1,2-d][1,2]oxazole-8-carboxylate] | 1.45 | 0.89 | 0.98 | 1.6 | 4.18 | 6.74 | 1.6 | 1.14 | 3.51 | 5.12 | 3.37 | 5.94 | 66.7 | 2.3 | 117 | > 5 | 51.5 | 3 | 86.3 | 2.6 | GI50 [1, 2]: 0.15 to 18.7 µM; IC50 (bovine brain tubulin): 6.3 ± 0.06 µM; GI50 (HOP-92): 4.21 µM; GI50 (HOP-62): 4.34 µM; GI50 (OVCAR-4): 18.7 µM; GI50 (MDA-MB-468): 0.34 µM; GI50 (SK-MEL-2): 0.56 µM; GI50 (RXF 393): 0.67 µM; GI50 (T-47D): 2 µM; GI50 (OVCAR-8): 3.13 µM
CCOC(=O)c1cc2c(n1Cc1cc(OC)cc(OC)c1)-c1oncc1CCC2 [Compound 66, Ethyl 9-(3,5-Dimethoxybenzyl)-4,5,6,9-tetrahydropyrrolo[2′,3′:3,4]cyclohepta[1,2-d][1,2]oxazole-8-carboxylate] | 0.08 | – | 1.72 | 0.04 | 0.23 | 0.05 | 0.03 | 0.03 | 0.07 | 0.09 | 0.05 | 0.18 | 40.1 | 0.25 | 24.1 | 0.3 | 11.3 | 0.25 | 9.1 | 0.25 | GI50 ([1]; Homo sapiens, prostate subpanel, read-out: GI50): 0.04 µM; mean values of subpanel ([1]; colon and CNS cancers): 0.06 µM; GI50 [1, 3]: 0.01 to 13.4 µM; calculated MG_MID value for each subpanel ([1]; melanoma, prostate and renal subpanels): 0.04 µM; IC50 (bovine brain tubulin): 2.6 ± 0.03 µM; GI50 (OVCAR-4): 13.4 µM; GI50 (MDA-MB-468): 0.03 µM; GI50 (SK-MEL-2): 0.04 µM; GI50 (RXF 393): 0.02 µM; GI50 (OVCAR-8): 0.08 µM
CCOC(=O)c1cc2c(n1Cc1cc(OC)c(OC)c(OC)c1)-c1oncc1CCC2 [Compound 67, Ethyl 9-(3,4,5-Trimethoxybenzyl)-4,5,6,9-tetrahydropyrrolo[2′,3′:3,4]cyclohepta[1,2-d][1,2]oxazole-8-carboxylate] | 0.20 | 0.05 | 0.29 | 0.34 | 0.3 | 0.97 | 0.07 | 0.12 | 0.76 | 0.3 | 0.08 | 0.53 | 40.5 | 0.5 | 24.2 | 0.9 | 11.2 | 0.6 | 8.9 | 0.6 | GI50 [1, 3]: 0.01 to 64.9 µM; IC50 (bovine brain tubulin): 4.6 ± 0.8 µM; GI50 (U251): 0.14 µM; GI50 (NCI-H23): 0.37 µM; GI50 (HOP-62): 0.17 µM; GI50 (OVCAR-4): 0.72 µM; GI50 (MDA-MB-468): 0.74 µM; GI50 (NCI-H322M): 0.32 µM; GI50 (RXF 393): 0.12 µM; GI50 (T-47D): 0.1 µM; GI50 (OVCAR-8): 0.24 µM
CCOC(=O)c1c(Cl)c2c(n1Cc1ccccc1)-c1oncc1CCC2 [Compound 70, Ethyl 7-Chloro-9-benzyl-4,5,6,9-tetrahydropyrrolo[2′,3′:3,4]cyclohepta[1,2-d][1,2]oxazole-8-carboxylate] | 7.08 | 3.68 | – | – | – | – | – | – | – | – | – | > 100 | 108 | > 10 | 104 | > 10 | 69.5 | 9 | 104 | > 10 | GI50 [1, 2]: 1.29 to 5.89 µM; GI50 (HOP-62): 4.35 µM; GI50 (NCI-H322M): > 100 µM; GI50 (T-47D): 2.69 µM
